Assay results from patent publication US6379563B1, “Alkylamines as biofilm deactivation agents” (Albemarle Corporation, priority 2000, dated 2002).
Like-named read-outs stand apart in the source and are kept apart here.

Assays:
[1] = from Bodor, Gabanyi, Wang, JACS 111, 3783 (1989); cited from earlier work
[2] = test system: Pseudomonas aeruginosa (ATCC 15442) biofilms; assay: MBEC test, 24-hour biofilm, one hour biocide challenge;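 for all read-outs here: Peg-grown biofilms exposed to biocide, then regrowth in broth 18 h at 35 °C, turbidity by absorbance at 650 nm, above 0.100 counted as growth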; type: cell-based; settings: for minimum biofilm eradication concentration (MBEC) / MBC: Pseudomonas aeruginosa, ATCC15442, 1 h; for minimum biofilm eradication concentration (MBEC) / MBEC, avg. / MBEC, ppm (first of duplicate runs) / MBEC, ppm (second of duplicate runs) / biofilm deactivation at 200 ppm (regrowth optical density measurements): 24-hour biofilm, 1 hour contact
Description: The MBEC technique consists of growing identical 24-hour biofilms on 96 pegs arrayed in 12 rows and 8 columns. The biofilms then are challenged with decreasing concentrations of selected antibiotics and/or biocides. After a certain challenge time (generally one hour), the biofilms are placed in 96 individual wells of growth media and ultra-sonicated to deactivate any surviving organisms. After culturing overnight, the wells are checked for turbidity. Clear, transparent wells indicate complete deactivation of the biofilm. Conversely, turbidity (“growth”) indicates lack of complete deactivation of the biofilm.
The minimum biofilm deactivation concentration (MBEC) is defined as the minimum concentration of an agent that completely deactivates biofilm bacteria. […] Unless otherwise indicated, the biofilms used in the examples below consisted of a pure culture of Pseudomonas aeruginosa (ATCC 15442).
Pseudomonas aeruginosa (ATCC 15442) biofilms were prepared on the 96 pegs of the MBEC plate by aerobic incubation in simple salts medium with 0.1% glucose (24 hours, 35° C.). The pegs were rinsed in synthetic water (SW) and then challenged by the biocide for one hour. Following the biocide challenge, the pegs were rinsed twice with SW and then sonicated into Mueller-Hinton broth (225 μL per well). The broth was then incubated for 18 hours at 35° C.

[3] = test system: 7-day biofilm formed using P. aeruginosa; assay: MBEC test, 7-day biofilm, one hour biocide challenge; type: cell-based, Pseudomonas aeruginosa; settings: 1 hour contact; for MBEC, avg., Example 4 / MBEC, ppm (first of duplicate runs), Example 4 / MBEC, ppm (second of duplicate runs), Example 4: Example 4, ppm oxidant (as Cl2) or ppm active
Description: The MBEC technique consists of growing identical 24-hour biofilms on 96 pegs arrayed in 12 rows and 8 columns. The biofilms then are challenged with decreasing concentrations of selected antibiotics and/or biocides. After a certain challenge time (generally one hour), the biofilms are placed in 96 individual wells of growth media and ultra-sonicated to […] any surviving organisms. After culturing overnight, the wells are checked for turbidity. Clear, transparent wells indicate complete deactivation of the biofilm. Conversely, turbidity (“growth”) indicates lack of complete deactivation of the biofilm.
After the 18 hour incubation period, the recovery wells were checked for turbidity. Clear, transparent wells indicated complete deactivation of the biofilm. Conversely, turbidity indicated the lack of complete deactivation of the biofilm. The minimum biofilm deactivation concentration (MBEC) is defined as the minimum concentration of agent which results in complete deactivation of the biofilm. MBEC endpoints were unambiguously determined by absorbance at 650 nm. using UV visible spectroscopy. An absorbance >0.100 was considered a positive indication of growth.
Pseudomonas aeruginosa (ATCC 15442) biofilms were prepared as described in Example I. The 7-day biofilms were prepared by a modification of the above procedure. Each day, spent media was replaced with fresh media and inocula.
Older biofilms offer increased resistance to biocides. Studies were extended to 7-day biofilms formed using P. aeruginosa. The procedure used to form the 7-day biofilm was the same as in Example 1, except that each day, spent media was replaced with fresh media and inocula. This biofilm was then challenged with oxidizing and non-oxidizing biocides.
Another 7-day biofilm was prepared from P. aeruginosa, as in EXAMPLE 3. This biofilm was then challenged with several common oxidizing and non-oxidizing biocides.

[4] = average of duplicate runs, blends: total amount of components (1:1 ratio), read-out: MBEC, avg.
[5] = blends: total amount of components (1:1 ratio), read-out: MBEC, ppm (first of duplicate runs)
[6] = blends: total amount of components (1:1 ratio), read-out: MBEC, ppm (second of duplicate runs)
[7] = blends: total biocide, read-out: MBEC
[8] = average of duplicate runs, blends: total amount of components (1:1 ratio)
[9] = blends: total amount of components (1:1 ratio)
[10] = Example 3, ppm oxidant (as Cl2) or ppm active
[11] = read-out: MBEC, avg., 24-hour biofilm, 1 hour contact, average of duplicate runs, blends: total amount of components (1:1 ratio)
[12] = read-out: MBEC, ppm (second of duplicate runs), 24-hour biofilm, 1 hour contact, blends: total amount of components (1:1 ratio)
[13] = read-out: MBEC, ppm (first of duplicate runs), 24-hour biofilm, 1 hour contact, blends: total amount of components (1:1 ratio)

SMILES	minimum biofilm eradication concentration (MBEC) [2, 4] [µg/mL]	minimum biofilm eradication concentration (MBEC) [2, 5] [µg/mL]	minimum biofilm eradication concentration (MBEC) [2, 6] [µg/mL]	minimum biofilm eradication concentration (MBEC) [2, 7] [µg/mL]	other results
CCCCN [1-Butylamine]					logKow experimental [1]: 0.87
CCCCCCCCCCN [1-Decylamine]	200	200	200	200	
CCCCCCCCCCCCN [1-Dodecylamine]	25	25	25	~38	MBEC on 7-day biofilm [3]: 75 ppm; MBEC, avg., Example 4 [3]: 75 ppm; MBEC, ppm (first of duplicate runs), Example 4 [3]: 100 ppm; MBEC, ppm (second of duplicate runs), Example 4 [3]: 50 ppm
CCCCCCCCCCCCCCCCN [1-Hexadecylamine]	200	200	200	200	
CCCCCCN [1-Hexylamine]	1600	1600	1600		
CCCCCCCCN [1-Octylamine]	400	400	400	400	
CCCCCCCCCCCCCCN [1-Tetradecylamine]	25	25	25	25	
CCCCN(C)CCCC [CH3(C4H9)2N]					MBEC, avg. [2, 8]: >800 ppm; MBEC, ppm (first of duplicate runs) [2, 9]: >800, >800 ppm; MBEC, ppm (second of duplicate runs) [2, 9]: >800, >800 ppm
CCCCCCN(C)CCCCCC [CH3(C6H13)2N]					MBEC, avg. [2, 8]: >800 ppm; MBEC, ppm (first of duplicate runs) [2, 9]: >800, >800 ppm; MBEC, ppm (second of duplicate runs) [2, 9]: >800, >800 ppm
CCCCCCCCN(C)CCCCCCCC [CH3(C8H17)2N, Dioctylmethylamine]	800	800	800	800	
O=c1n(Cl)c(=O)n(Cl)c(=O)n1Cl [Cl2 (from Trichlor), trichloroisocyanuric acid]					MBEC on 7-day biofilm [3]: 20 ppm; MBEC, ppm (first of duplicate runs), Example 3 [3, 10]: 5 ppm; MBEC, ppm (second of duplicate runs), Example 3 [3, 10]: > 10 ppm; MBEC, avg., Example 4 [3]: 20 ppm; MBEC, ppm (first of duplicate runs), Example 4 [3]: 20, 20 ppm; MBEC, ppm (second of duplicate runs), Example 4 [3]: 20, 20 ppm
CCCCCCCCCCN(C)CCCCCCCCCC [DAMA 1010 Amine, didecylmethylamine]	400	400	400	400	
CCCCCCCCCC[N+](C)(C)CCCCCCCCCC.[Cl-] [DAQ 1010, Didecyldimethyl ammonium chloride]					MBEC on 7-day biofilm [3]: 75 ppm; MBEC, avg., Example 4 [3]: 75 ppm; MBEC, ppm (first of duplicate runs), Example 4 [3]: 100 ppm; MBEC, ppm (second of duplicate runs), Example 4 [3]: 50 ppm; MBC ([2]; read-out: MBEC, 24-hour biofilm, 1 hour contact, blends: total biocide): ~38 µg/mL; MBC [2, 11]: 50 µg/mL; MBC [2, 12]: 25 µg/mL
CCCCNCCCC [N,N-Dibutylamine]	> 1600	> 1600	> 1600		logKow experimental [1]: 2.76
CCCCN(C)C [N,N-Dimethylbutylamine]					logKow experimental [1]: 1.70
CCCCCCCCCCN(C)C [N,N-Dimethyldecylamine]	> 400	> 400	> 400		
CCCCCCCCCCCCN(C)C [N,N-Dimethyldodecylamine]					MBC [2, 11]: > 200 µg/mL; MBC [2, 13]: > 200 µg/mL; MBC [2, 12]: > 200 µg/mL
CCCCCCCCCCCCCCCCN(C)C [N,N-Dimethylhexadecylamine]	> 200	> 200	> 200	400 to 800	biofilm deactivation at 200 ppm (regrowth optical density measurements) [2]: evidence of biofilm deactivation
CCCCCCCCN(C)C [N,N-Dimethyloctylamine]	> 800	> 800	> 800		
CCCCCCCCCCCCCCN(C)C [N,N-Dimethyltetradecylamine]	> 200	> 200	> 200	400 to 800	biofilm deactivation at 200 ppm (regrowth optical density measurements) [2]: evidence of biofilm deactivation
CCCCCCCCNCCCCCCCC [N,N-Dioctylamine]	1600	1600	1600	1600	
OC[P+](CO)(CO)CO.[Cl-] [THPC, tetrakis(hydroxymethyl)phosphonium chloride, reference compound]					MBC [2, 11]: 100 µg/mL; MBC [2, 13]: 100 µg/mL; MBC [2, 12]: 100 µg/mL
O=CCCCC=O [glutaraldehyde, reference compound]	50	50	50	50 to 100	MBEC on 7-day biofilm [3]: about 200 ppm; MBEC, avg., Example 3 [3, 10]: ˜200 ppm; MBEC, ppm (first of duplicate runs), Example 3 [3, 10]: 100 ppm; MBEC, ppm (second of duplicate runs), Example 3 [3, 10]: > 200 ppm
